Reference: publication PMC10420772, “Characteristics of alanine racemase in Lactobacillus sakei ZH‐2 strain” (Food Science & Nutrition, 2023)
Blank lines part the entries; values can stand above or below the molecule they belong to.

What was measured:
[1] = molecular target: T1, rALRase (recombinant alanine racemase of Lactobacillus sakei ZH-2) (Latilactobacillus sakei, UniProt Q38V64, T117A); test: racemase activity with and without PLP, D-amino acid oxidase/LDH-coupled; type: biochemical; details: L-alanine substrate; 10 mM PLP in the standard assay, pH 9.0
T1 construct: gene alr; pCold I in E. coli BL21, His-tag purified, tag removed with Factor Xa

purified protein = substrate: C[C@H](N)C(=O)O; test: purified protein; details: L-alanine 0.1-50 mM, L to D direction, standard assay 50 mM CHES-NaOH pH 9.0, 10 mM PLP, 37 °C

fold activity with PLP versus without [1]: 1.5–2 times
Molecule: Cc1ncc(COP(=O)(O)O)c(C=O)c1O [pyridoxal phosphate]

B1: rALRase (recombinant alanine racemase of Lactobacillus sakei ZH-2) (Latilactobacillus sakei subsp. sakei 23K; T117A) (protein)
chain: MTVGYLRPTRILVDQNAIYENIQNELKHLEGTDTVIFPVLKANAYGHGLIPVAEAAQAAGAAGFCVALLDEALALRRANFTEPILVLGITQPSEIELAAANQISLTVGSLEWLQEAAAIAQQVPYLHPVPIHLSIDSGMGRIGMRDEAELLAAYTFIKAHSDYFDFEGVFTHFATADDPDDTYFKEQSARFNQLMTALPERPRFVHVSNSATSLWHAACNGNIIRMGISLYGLNPSGNAIPDLPYPLKQALGIESELVFVKQVAAGTKIGYGATYEASEGEWIGTIPMGYADGWLRRMQGSTVLVDGQRCEIVGRICMDQMMIRLPKRYPVGTKVVFVGKSGDDEITLQEVADYADTIHYEIICDLSDRIPRVYTGLNEH
Km (purified protein): 1320 µM
